Legend:
ROCK2 = target: T1, ROCK2 (Homo sapiens, UniProt O75116); experiment: Kinase IC50 assay, HTRF kinEASE STK S2 kit, ROCK2; type: biochemical; details: ATP 1 μM, 2.5 ng/well enzyme, 120 min
T1 construct: purchased Invitrogen PV3759
Protocol: (§1) Kinase IC50 assay was performed using the kinase assay kit HTRF kinEASE STK S2 kit (Cat #62ST2PEC, Cisbio). Kinases ROCK1 (Cat #PV3691) and ROCK2 (Cat #PV3759) were purchased from Invitrogen.
(§2) The working solution required for the assay was prepared with the appropriate reagents as described in the kinase assay kit instructions:
(§3) 1 mL of 1× Kinase Buffer contains 200 μL 5× Enzyme buffer, 5 μL 1M MgCl2 (Cat.M8266, Sigma), 1 μL 1M DTT (Cat.D5545, Sigma), 794 μL ddH2O.
(§4) The specific concentrations of STK-biotin substrate and ATP are shown in Table A. STK-biotin substrate and ATP were diluted with 1× kinase buffer to 2.5 times of the reaction concentration.
(§5) Concentrations of ROCK1/ROCK2 are shown in Table A. 5×ROCK1/ROCK2 Kinase working solution was prepared with 1× Kinase Buffer.
(§6) See Table A for the concentrations of Streptavidin-XL665 and STK Antibody-Cryptate in the reaction. 2× Streptavidin-XL665 and STK Antibody-Cryptate Working Solutions were prepared 5 minutes prior to the end of the kinase reaction using Detection Buffer from the kit.
(§7) A 100 μM compound mother solution was prepared using 1× kinase buffer containing 2.5% DMSO, and the mother solution was diluted 4-fold stepwise with the above DMSO-containing kinase buffer to obtain nine different concentrations of the compound solutions to be tested. In addition to the test compound wells, positive control wells (containing all reagents except the compounds) and negative control wells (containing all reagents except the compounds and kinase) were set up. 4 μL of the test compound solution was added to all reaction wells except the control wells and 4 μL of 2.5% DMSO solution was added to the control wells. Then 4 μL of previously prepared substrate and ATP working solution were added to all wells and mix well. Then, 2 μL/well of 5×ROCK1/ROCK2 kinase working solution (containing 2.5 ng ROCK1/ROCK2 kinase) was added to all reaction wells except negative control wells, and the negative control wells were made up to volume with 2 μL of 1× kinase buffer. Mix well, seal with plastic film and incubate at room temperature for 2 hours. Start preparing the assay solution 5 minutes before the end of the kinase reaction. After the end of the kinase reaction, 10 μL of prepared Streptavidin-XL665 and STK Antibody-Cryptate working solution were added to all reaction wells, the plates were sealed and mixed well, and then incubated at room temperature for 1 hour. Finally, the fluorescence signal was detected by SpectraMax i3x Multi-Mode Reader (Molecular Devices) (excitation wavelength is 320 nm, emission wavelength is 665 nm and 615 nm).
(§8) The inhibition rate in each well was calculated from the fluorescence intensity values of each well:
(§9) ER Emission Ratio, Emission light ratio=fluorescence intensity at 665 nm/fluorescence intensity at 615 nm;
(§10) ERcompound, ER of test compound wells; ERvehicle, ER of solvent (positive) control wells, ERblank, ER of blank (negative) control wells.
(§11) The graphs were plotted using the software GraphPad Prism 6.0, while the half inhibitory concentration (IC50) of each compound to be tested was obtained by fitting with Prism 6.0.

ROCK1 = target: T2, ROCK1 (Homo sapiens, UniProt Q13464); experiment: Kinase IC50 assay, HTRF kinEASE STK S2 kit, ROCK1; type: biochemical; details: ATP 1.5 μM, 2.5 ng/well enzyme, 120 min
T2 construct: purchased Invitrogen PV3691
T2 sequence (Q13464 1-535 limits assumed): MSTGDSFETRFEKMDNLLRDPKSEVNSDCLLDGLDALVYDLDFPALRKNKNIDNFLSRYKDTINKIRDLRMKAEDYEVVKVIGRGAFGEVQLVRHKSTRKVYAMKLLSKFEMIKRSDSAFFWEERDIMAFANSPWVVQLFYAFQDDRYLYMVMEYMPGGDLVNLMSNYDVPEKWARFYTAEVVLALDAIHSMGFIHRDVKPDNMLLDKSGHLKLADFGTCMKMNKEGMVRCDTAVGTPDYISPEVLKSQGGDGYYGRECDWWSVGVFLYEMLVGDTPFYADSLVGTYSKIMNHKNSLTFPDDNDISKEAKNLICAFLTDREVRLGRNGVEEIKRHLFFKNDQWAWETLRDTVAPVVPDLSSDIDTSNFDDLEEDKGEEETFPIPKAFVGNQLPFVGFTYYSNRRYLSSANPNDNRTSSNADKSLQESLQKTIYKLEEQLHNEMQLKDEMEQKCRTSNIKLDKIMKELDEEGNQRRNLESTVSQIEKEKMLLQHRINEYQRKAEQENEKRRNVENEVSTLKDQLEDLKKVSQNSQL
Protocol: as §1, §2, §3, §4, §5, §6, §7, §8, §9, §10, §11

T1 sequence (O75116 5-554 limits assumed): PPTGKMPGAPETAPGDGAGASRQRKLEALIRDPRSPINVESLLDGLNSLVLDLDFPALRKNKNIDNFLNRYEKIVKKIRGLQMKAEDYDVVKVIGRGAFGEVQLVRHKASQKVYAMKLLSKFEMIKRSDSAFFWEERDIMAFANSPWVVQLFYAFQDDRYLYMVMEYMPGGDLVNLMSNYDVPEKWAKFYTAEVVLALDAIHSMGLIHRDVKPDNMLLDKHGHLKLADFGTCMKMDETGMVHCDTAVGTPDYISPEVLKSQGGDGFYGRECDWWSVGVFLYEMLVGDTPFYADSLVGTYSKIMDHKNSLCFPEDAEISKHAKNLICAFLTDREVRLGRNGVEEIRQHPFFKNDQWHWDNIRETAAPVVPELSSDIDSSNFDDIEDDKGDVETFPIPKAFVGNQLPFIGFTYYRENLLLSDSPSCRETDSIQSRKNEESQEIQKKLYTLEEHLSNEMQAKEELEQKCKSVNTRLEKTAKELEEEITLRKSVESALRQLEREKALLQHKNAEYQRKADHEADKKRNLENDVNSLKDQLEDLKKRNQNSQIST

SMILES	IC50 (ROCK2)	IC50 (ROCK1)
CC(C)c1cc(C(=O)N2CC(F)(F)C2)n(C)c1C#Cc1ncc(F)c(Nc2cc(F)c(-c3cn[nH]c3)cc2F)n1 [Compound A55]	0.0573 µM	> 100 µM
O=C1c2ccc(C#Cc3ncc(F)c(Nc4ccc(-c5cn[nH]c5)cc4)n3)n2CCN1CC(F)(F)F [Compound A38]	0.445 µM	> 100 µM
O=C(c1cccc(C#Cc2ncc(F)c(Nc3cc(F)c(-c4cn[nH]c4)cc3F)n2)n1)N1CC(F)(F)C1 [Compound A46]	0.161 µM	> 100 µM
Cc1cc(C(=O)N2CC(F)(F)C2)n(C)c1C#Cc1ncc(F)c(Nc2ccc(-c3cn[nH]c3)c(F)c2)n1 [Compound A42]	0.005 µM	4.93 µM
Cc1cc(C(=O)N2CC(F)(F)C2)n(C)c1C#Cc1ncc(F)c(Nc2cc(F)c(-c3cn[nH]c3)c(F)c2)n1 [Compound A40]	0.0172 µM	> 100 µM
Cc1cc(C(=O)N2CC(O)C2)n(C)c1C#Cc1ncc(F)c(Nc2cc(F)c(-c3cn[nH]c3)cc2F)n1 [Compound A56]	0.0193 µM	> 100 µM
Cn1nc(C#Cc2nccc(Nc3ccc(-c4cn[nH]c4)cc3)n2)cc1C(=O)N1CC(F)(F)C1 [Compound A17]	1.06 µM	50.3 µM
CCn1c(C#Cc2nccc(Nc3ccc(-c4cn[nH]c4)cc3)n2)ccc1C(=O)N1CC(F)(F)C1 [Compound A32]	0.232 µM	30.7 µM
Cn1c(C#Cc2nccc(Nc3ccc4[nH]ncc4c3)n2)ccc1C(=O)N1CC(F)(F)C1 [Compound A2]	0.303 µM	3.9 µM
Cc1cc(C(=O)N2CC(F)(F)C2)n(C)c1C#Cc1nc(C)c(F)c(Nc2ccc(-c3cn[nH]c3)c(F)c2)n1 [Compound A45]	0.0352 µM	8.8 µM
Cc1cc(C(=O)N2CC(F)(F)C2)n(C)c1C#Cc1ncc(F)c(Nc2cnc(-c3cn[nH]c3C)cc2F)n1 [Compound A48]	0.0377 µM	18.4 µM
Cn1c(C#Cc2ncc(F)c(Nc3ccc(-c4cn[nH]c4)cc3)n2)ccc1C(=O)N1CC(F)(F)C1 [Compound A7]	0.0544 µM	> 100 µM
Cc1cc(Nc2ccnc(C#Cc3ccc(C(=O)N4CC(F)(F)C4)n3C)n2)ccc1-c1cn[nH]c1 [Compound A12]	0.199 µM	32.3 µM
Cc1cc(C(=O)N2CC(F)(F)C2)n(C)c1C#Cc1ncc(F)c(Nc2cc(F)c(-c3cn[nH]c3)cc2F)n1 [Compound A49]	0.0177 µM	37.4 µM
O=C(c1cccc(C#Cc2nccc(Nc3ccc(-c4cn[nH]c4)cc3)n2)n1)N1CC(F)(F)C1 [Compound A20]	0.206 µM	> 100 µM
O=C(c1cccc(C#Cc2nccc(Nc3ccc(-c4cn[nH]c4)cc3)n2)c1)N1CC(F)(F)C1 [Compound A29]	2 µM	57.1 µM
Cn1c(C#Cc2nc(Nc3ccc(-c4cn[nH]c4)cc3)c3ccccc3n2)ccc1C(=O)N1CC(F)(F)C1 [Compound A37]	0.42 µM	> 100 µM
Cn1c(C(=O)N2CC(F)(F)C2)cc(C2CC2)c1C#Cc1ncc(F)c(Nc2cc(F)c(-c3cn[nH]c3)cc2F)n1 [Compound A54]	0.0192 µM	64 µM
Cn1c(C#Cc2ncc(F)c(Nc3ccc(-c4c[nH]nc4F)cc3)n2)ccc1C(=O)N1CC(F)(F)C1 [Compound A15]	0.421 µM	> 100 µM
O=C(c1ccc(C#Cc2nccc(Nc3ccc(-c4cn[nH]c4)cc3)n2)nc1)N1CC(F)(F)C1 [Compound A21]	0.754 µM	> 100 µM
Cc1cc(C(=O)N2CC(F)(F)C2)n(C)c1C#Cc1ncc(F)c(Nc2cc(F)c(-c3cn[nH]c3C)c(F)c2)n1 [Compound A43]	0.0515 µM	20.6 µM

SMILES	IC50 (ROCK2)	IC50 (ROCK1)
Cn1c(C#Cc2nc3c(c(Nc4ccc(-c5cn[nH]c5)cc4)n2)COC3)ccc1C(=O)N1CC(F)(F)C1 [Compound A10]	0.0778 µM	> 100 µM
Cc1nc(C#Cc2ccc(C(=O)N3CC(F)(F)C3)n2C)nc(Nc2ccc(-c3cn[nH]c3)cc2)c1C [Compound A6]	0.202 µM	35.2 µM
Cc1cc(C(=O)N2CC(F)(F)C2)n(C)c1C#Cc1ncc(F)c(Nc2cc(F)c(-c3cn[nH]c3C)cc2F)n1 [Compound A47]	0.476 µM	> 100 µM
O=C(c1ccc(C#Cc2nccc(Nc3ccc(-c4cn[nH]c4)cc3)n2)cc1)N1CC(F)(F)C1 [Compound A28]	1.1 µM	> 100 µM
Cc1[nH]ncc1-c1ccc(Nc2nc(C#Cc3ccc(C(=O)N4CC(F)(F)C4)n3C)ncc2F)cc1 [Compound A16]	0.0349 µM	29.6 µM
Cc1n[nH]c(C)c1-c1ccc(Nc2ccnc(C#Cc3ccc(C(=O)N4CC(F)(F)C4)n3C)n2)cc1 [Compound A14]	0.585 µM	> 100 µM
COC1CN(C(=O)c2cc(C)c(C#Cc3ncc(F)c(Nc4cc(F)c(-c5cn[nH]c5)cc4F)n3)n2C)C1 [Compound A57]	0.0324 µM	> 100 µM
Cn1cc(C#Cc2nccc(Nc3ccc(-c4cn[nH]c4)cc3)n2)cc1C(=O)N1CC(F)(F)C1 [Compound A18]	2.35 µM	53.8 µM
Cc1cnc(C#Cc2ccc(C(=O)N3CC(F)(F)C3)n2C)nc1Nc1ccc(-c2cn[nH]c2)cc1 [Compound A4]	0.186 µM	80 µM
Cc1cc(C(=O)N2CC(F)(F)C2)n(C)c1C#Cc1ncc(F)c(Nc2ccc(-c3cn[nH]c3C)cc2)n1 [Compound A44]	0.0127 µM	> 100 µM
Cn1c(C#Cc2ncnc(Nc3ccc(-c4cn[nH]c4)cc3)n2)ccc1C(=O)N1CC(F)(F)C1 [Compound A9]	0.702 µM	> 100 µM
O=C(c1ccc(C#Cc2nccc(Nc3ccc(-c4cn[nH]c4)cc3)n2)n1C1CC1)N1CC(F)(F)C1 [Compound A30]	0.118 µM	41.9 µM
O=C(c1ccc(C#Cc2nccc(Nc3ccc(-c4cn[nH]c4)cc3)n2)s1)N1CC(F)(F)C1 [Compound A19]	50.5 µM	> 100 µM
Cc1cc(Nc2ccc(-c3cn[nH]c3)cc2)nc(C#Cc2ccc(C(=O)N3CC(F)(F)C3)n2C)n1 [Compound A5]	0.091 µM	> 100 µM
Cn1c(C#Cc2ncc(C#N)c(Nc3ccc(-c4cn[nH]c4)cc3)n2)ccc1C(=O)N1CC(F)(F)C1 [Compound A8]	3.49 µM	> 100 µM
Cc1c(Nc2ccnc(C#Cc3ccc(C(=O)N4CC(F)(F)C4)n3C)n2)ccc2[nH]ncc12 [Compound A22]	3.59 µM	40.9 µM
CN1Cc2nc(C#Cc3ccc(C(=O)N4CC(F)(F)C4)n3C)nc(Nc3ccc(-c4cn[nH]c4)cc3)c2C1 [Compound A11]	0.0867 µM	> 100 µM
Cc1cc(C(=O)N2CC(F)(F)C2)n(C)c1C#Cc1ncc(F)c(Nc2ccc(-c3cn[nH]c3C)cc2F)n1 [Compound A51]	0.131 µM	> 100 µM
Cc1cc(C(=O)N2CC(F)(F)C2)n(C)c1C#Cc1ncc(F)c(Nc2cnc(-c3cn[nH]c3)c(F)c2)n1 [Compound A41]	0.0724 µM	> 100 µM
Cn1c(C#Cc2ncc(F)c(Nc3ccc4c(=O)[nH]ccc4c3)n2)ccc1C(=O)N1CC(F)(F)C1 [Compound A27]	0.274 µM	> 100 µM
Cc1cc(C(=O)N2CC(F)(F)C2)n(C)c1C#Cc1nc2c(c(Nc3cc(F)c(-c4cn[nH]c4)c(F)c3)n1)COC2 [Compound A50]	0.0089 µM	0.073 µM

Source: patent publication US20260265279A1, “RHO-ASSOCIATED PROTEIN KINASE INHIBITOR AND PREPARATION AND USE THEREOF” (Shanghai Zhimeng Biopharma, Inc, priority 2022, published 2026)
